Literature values, collected in patent publication US5990277A, “Semipeptoid farnesyl protein transferase inhibitors and analogs thereof” (Yissum Research Development Company of the Herbrew …, priority 1996, dated 1999).

Assays:
[1] = tested on: human adenocarcinoma cell line PSN-1; details: PSN-1 cells, altered K-ras and p53 genes; cited from earlier work
tumors in nude mice = details: cited from earlier work
[2] = target: farnesyl protein transferase (Homo sapiens, UniProt P49354+P49356); details: literature; cited from earlier work
[3] = tested on: protein farnesyl transferase in cells; details: cited from earlier work
[4] = tested on: RatI cells transformed with viral H-ras; details: cited from earlier work
met18b-2 cells = details: cited from earlier work
[5] = tested on: MMTV-v-Ha-ras transgenic mice bearing palpable tumors; details: daily administration; cited from earlier work
[6] = tested on: Ras processing in cells transformed with v-ras; details: cited from earlier work
[7] = tested on: cells transformed by either v-raf or v-mos oncogenes; details: cited from earlier work
v-ras-transformed cells = details: cited from earlier work

Structure (SMILES): CC[C@H](C)[C@@H](CO[C@@H](Cc1ccccc1)C(=O)N[C@@H](CCS(C)(=O)=O)C(=O)OC)NC[C@@H](N)CS [L-739,749]
- anchorage-independent growth [1]: inhibit the anchorage-independent growth
- growth of tumors (tumors in nude mice): suppress the growth of tumors
- farnesyl protein transferase inhibitory potency in vitro [2]: moderate inhibitor
- inhibitory activity in cells compared to compound L-739,750 [3]: superior inhibitory activity
- anchorage-independent growth [4]: suppressing the anchorage-independent growth

Structure (SMILES): COC(=O)[C@H](CCSC)NC(=O)CN1C(=O)C(N(C)C(=O)[C@@H](N)CS)N=C(c2ccccc2)c2ccccc21 (stereo partly drawn) [BZA-5B]
- inhibitory potency in cells versus parent compound BZA-2B (met18b-2 cells): much more potent inhibitor

Structure (SMILES): CC[C@H](C)[C@@H](CO[C@@H](Cc1ccccc1)C(=O)N[C@@H](CCS(C)(=O)=O)C(=O)OC(C)C)NC[C@@H](N)CS [L-744,832]
- farnesyl protein transferase inhibitory potency in vitro [2]: potent and selective inhibitor
- tumor response [5]: caused tumor regression

Structure (SMILES): CC[C@H](C)[C@H](NC[C@@H](NC[C@@H](N)CS)[C@@H](C)CC)C(=O)NC1CCOC1=O (stereo partly drawn) [L-731,734, N-{2(S)-[2(R)-amino-3-mercaptopropylamino]-3(S)-methylpentyl}isoleucyl-homoserine lactone]
- effect on Ras processing in cells [6]: efficiently inhibit Ras processing
- efficiency of colony transformation [7]: no effect on the efficiency of colony transformation
- farnesyl protein transferase inhibitory potency in vitro [2]: less potent
- colony formation in soft agar (v-ras-transformed cells): decreasing the ability of v-ras-transformed cells to form colonies
